# Data reported in ChEMBL document CHEMBL1201862, “PubChem BioAssay data set” (2004).
# Activity calls are given as the source filed them.
# Legend:
# Caspase-6 = biological target: T1, Caspase-6 (Homo sapiens, UniProt P55212); assay: human caspase-6 inhibitors, dose response, biochemical, VEID-R110 fluorescence, cherry-pick (AID 720632)
# T1 sequence (P55212 whole entry): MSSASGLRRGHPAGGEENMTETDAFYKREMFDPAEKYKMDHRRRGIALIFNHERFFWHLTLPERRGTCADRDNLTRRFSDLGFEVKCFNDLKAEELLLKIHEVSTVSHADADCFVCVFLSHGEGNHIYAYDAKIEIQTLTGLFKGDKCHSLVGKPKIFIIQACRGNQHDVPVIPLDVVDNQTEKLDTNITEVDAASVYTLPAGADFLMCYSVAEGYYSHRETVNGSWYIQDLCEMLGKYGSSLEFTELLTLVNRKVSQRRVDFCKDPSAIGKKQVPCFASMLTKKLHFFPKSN
# Prothrombin = Prothrombin (Homo sapiens, UniProt P00734); assay: Thrombin 1536 HTS Dose Response Confirmation. [Related pubchem assays: 1046 (Thrombin 1536 HTS; hits were confirmed in this assay)]; assay type: functional
# Caspase-7 = Caspase-7 (Homo sapiens, UniProt P55210); assay: human caspase-7 inhibitors, dose response, selectivity assay for caspase-6 inhibitor project, biochemical, DEVD-R110 fluorescence, cherry-pick (AID 743295)
# [1] = biological target: T2, Sentrin-specific protease 6 (Homo sapiens, UniProt Q9GZR1); assay: SAR Analysis of small molecule inhibitors of Sentrin-specific protease 6 (SENP6) using a Luminescent assay. [Related pubchem assays (depositor defined):AID2582, AID2599]; assay type: functional
# T2 sequence (Q9GZR1 whole entry): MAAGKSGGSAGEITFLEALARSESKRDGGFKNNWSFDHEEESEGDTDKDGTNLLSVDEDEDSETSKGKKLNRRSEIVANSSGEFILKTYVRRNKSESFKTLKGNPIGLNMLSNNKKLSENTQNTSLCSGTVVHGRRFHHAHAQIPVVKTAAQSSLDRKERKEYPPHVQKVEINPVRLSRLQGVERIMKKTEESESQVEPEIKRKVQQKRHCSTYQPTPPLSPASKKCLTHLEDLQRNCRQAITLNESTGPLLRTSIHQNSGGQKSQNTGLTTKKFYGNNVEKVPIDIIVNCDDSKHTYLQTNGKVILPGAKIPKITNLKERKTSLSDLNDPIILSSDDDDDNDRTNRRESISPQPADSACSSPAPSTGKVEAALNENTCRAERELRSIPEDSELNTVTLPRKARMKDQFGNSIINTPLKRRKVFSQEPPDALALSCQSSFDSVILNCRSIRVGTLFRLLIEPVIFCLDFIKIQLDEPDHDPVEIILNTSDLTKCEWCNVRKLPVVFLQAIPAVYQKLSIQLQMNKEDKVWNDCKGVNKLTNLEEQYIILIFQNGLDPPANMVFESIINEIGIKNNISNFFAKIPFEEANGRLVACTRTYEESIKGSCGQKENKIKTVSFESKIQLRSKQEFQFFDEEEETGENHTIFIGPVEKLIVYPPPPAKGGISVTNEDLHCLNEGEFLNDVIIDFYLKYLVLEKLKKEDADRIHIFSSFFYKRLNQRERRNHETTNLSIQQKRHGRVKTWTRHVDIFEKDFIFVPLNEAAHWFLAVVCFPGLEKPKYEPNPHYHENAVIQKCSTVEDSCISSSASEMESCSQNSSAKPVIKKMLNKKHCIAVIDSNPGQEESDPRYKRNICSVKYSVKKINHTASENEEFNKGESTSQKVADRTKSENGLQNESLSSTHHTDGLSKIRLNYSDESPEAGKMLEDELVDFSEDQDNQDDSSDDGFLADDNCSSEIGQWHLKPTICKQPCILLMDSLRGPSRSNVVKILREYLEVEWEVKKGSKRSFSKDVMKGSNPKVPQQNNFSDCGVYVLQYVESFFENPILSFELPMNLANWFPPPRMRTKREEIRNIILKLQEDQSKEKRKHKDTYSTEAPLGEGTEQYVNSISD
# [2] = biological target: MAP kinase-activated protein kinase 5 (Homo sapiens, UniProt Q8IW41); assay type: functional;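 also: measured as one member of a kinome panel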
# [3] = biological target: Serine/threonine-protein kinase D2 (Homo sapiens, UniProt Q9BZL6); assay type: functional;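 also: measured against PRKD2 as one member of a kinome-wide kinase profiling panel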
# [4] = biological target: Macrophage colony-stimulating factor 1 receptor (Homo sapiens, UniProt P07333); assay type: functional;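 also: value comes from the Navigating the Kinome screening panel, CSF1R member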
# [5] = biological target: Serine/threonine-protein kinase Chk1 (Homo sapiens, UniProt O14757); assay type: functional;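 also: measured as one member of a kinome-wide kinase profiling panel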
# [6] = biological target: Serine/threonine-protein kinase 3 (Homo sapiens, UniProt Q13188); assay type: functional;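 also: measured as one member of a kinome-wide kinase panel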
# [7] = biological target: Mitogen-activated protein kinase 12 (Homo sapiens, UniProt P53778); assay type: functional;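 also: measured as one member of a kinome-wide kinase profiling panel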
# [8] = biological target: MAP kinase-interacting serine/threonine-protein kinase 2 (Homo sapiens, UniProt Q9HBH9); assay type: functional
# [9] = biological target: Tyrosine-protein kinase Lck (Homo sapiens, UniProt P06239); assay type: functional;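 also: lck was assayed as one member of a kinase panel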
# [10] = biological target: Proto-oncogene tyrosine-protein kinase Src (Homo sapiens, UniProt P12931); assay type: functional;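 also: SRC entry within a kinome-wide kinase profiling panel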
# [11] = biological target: Serine/threonine-protein kinase Chk2 (Homo sapiens, UniProt O96017); assay type: functional;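 also: CHEK2 entry within a kinome-wide screening panel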
# [12] = biological target: Serine/threonine-protein kinase pim-2 (Homo sapiens, UniProt Q9P1W9); assay type: functional;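 also: value comes from a broad kinase panel profiling study in which PIM2 was one of the panel members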
# [13] = biological target: Serine/threonine-protein kinase N2 (Homo sapiens, UniProt Q16513); assay type: functional
# [14] = biological target: Hepatocyte growth factor receptor (Homo sapiens, UniProt P08581); assay type: functional;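 also: kinase panel profiling across the kinome, with MET as the panel member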
# [15] = biological target: Casein kinase I isoform delta (Homo sapiens, UniProt P48730); assay type: functional;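 also: measured as one member (CSNK1D) of a kinome panel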
# Ephrin type-A receptor 2 = Ephrin type-A receptor 2 (Homo sapiens, UniProt P29317); assay type: functional;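 also: EPHA2 tested as one member of a kinome-wide kinase panel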
# [16] = biological target: Vascular endothelial growth factor receptor 2 (Homo sapiens, UniProt P35968); assay type: functional
# [17] = biological target: Tyrosine-protein kinase Srms (Homo sapiens, UniProt Q9H3Y6); assay type: functional;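 also: SRMS measured as one member of a kinome-wide kinase profiling panel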
# [18] = biological target: Protein kinase C delta type (Homo sapiens, UniProt Q05655); assay type: functional
# [19] = biological target: Cyclin-dependent kinase 2 (Homo sapiens, UniProt P24941); assay type: functional;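 also: CDK2 measured as one member of a broad kinome profiling panel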
# [20] = biological target: Serine/threonine-protein kinase PAK 4 (Homo sapiens, UniProt O96013); assay type: functional;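 also: value obtained within a kinome profiling panel in which PAK4 was one of the panel members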
# [21] = biological target: Mitogen-activated protein kinase 13 (Homo sapiens, UniProt O15264); assay type: functional
# Tyrosine-protein kinase Lck, sequence (P06239 whole entry): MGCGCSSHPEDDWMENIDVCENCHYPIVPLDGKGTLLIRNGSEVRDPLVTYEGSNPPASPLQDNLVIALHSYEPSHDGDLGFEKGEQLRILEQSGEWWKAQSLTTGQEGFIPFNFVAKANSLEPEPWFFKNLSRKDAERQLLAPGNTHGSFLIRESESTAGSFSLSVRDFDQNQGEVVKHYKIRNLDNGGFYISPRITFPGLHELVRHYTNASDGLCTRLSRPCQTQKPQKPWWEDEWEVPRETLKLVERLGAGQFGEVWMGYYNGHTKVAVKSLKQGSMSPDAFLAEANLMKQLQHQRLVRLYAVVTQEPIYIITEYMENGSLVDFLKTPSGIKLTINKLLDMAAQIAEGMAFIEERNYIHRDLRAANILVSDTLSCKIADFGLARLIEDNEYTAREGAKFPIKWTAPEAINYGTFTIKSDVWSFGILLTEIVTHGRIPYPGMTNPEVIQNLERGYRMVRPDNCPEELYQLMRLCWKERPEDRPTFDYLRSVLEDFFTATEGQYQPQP
# Serine/threonine-protein kinase PAK 4, sequence (O96013 whole entry): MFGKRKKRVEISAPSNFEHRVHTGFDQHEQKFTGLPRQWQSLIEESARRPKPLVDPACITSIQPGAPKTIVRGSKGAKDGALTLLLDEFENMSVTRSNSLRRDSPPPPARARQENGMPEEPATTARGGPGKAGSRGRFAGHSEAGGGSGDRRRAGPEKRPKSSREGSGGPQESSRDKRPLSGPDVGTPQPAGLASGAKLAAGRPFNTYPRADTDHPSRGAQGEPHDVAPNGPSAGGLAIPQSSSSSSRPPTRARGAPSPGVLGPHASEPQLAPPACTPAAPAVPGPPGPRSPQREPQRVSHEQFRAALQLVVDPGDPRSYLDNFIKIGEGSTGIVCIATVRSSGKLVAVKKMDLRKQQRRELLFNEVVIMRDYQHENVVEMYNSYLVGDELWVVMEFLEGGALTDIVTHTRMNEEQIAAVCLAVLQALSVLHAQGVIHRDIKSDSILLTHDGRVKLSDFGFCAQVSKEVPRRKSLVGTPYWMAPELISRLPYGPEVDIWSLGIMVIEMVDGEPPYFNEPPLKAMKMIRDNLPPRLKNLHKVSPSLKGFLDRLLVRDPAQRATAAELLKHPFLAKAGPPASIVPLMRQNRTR
# Serine/threonine-protein kinase Chk1, sequence (O14757 whole entry): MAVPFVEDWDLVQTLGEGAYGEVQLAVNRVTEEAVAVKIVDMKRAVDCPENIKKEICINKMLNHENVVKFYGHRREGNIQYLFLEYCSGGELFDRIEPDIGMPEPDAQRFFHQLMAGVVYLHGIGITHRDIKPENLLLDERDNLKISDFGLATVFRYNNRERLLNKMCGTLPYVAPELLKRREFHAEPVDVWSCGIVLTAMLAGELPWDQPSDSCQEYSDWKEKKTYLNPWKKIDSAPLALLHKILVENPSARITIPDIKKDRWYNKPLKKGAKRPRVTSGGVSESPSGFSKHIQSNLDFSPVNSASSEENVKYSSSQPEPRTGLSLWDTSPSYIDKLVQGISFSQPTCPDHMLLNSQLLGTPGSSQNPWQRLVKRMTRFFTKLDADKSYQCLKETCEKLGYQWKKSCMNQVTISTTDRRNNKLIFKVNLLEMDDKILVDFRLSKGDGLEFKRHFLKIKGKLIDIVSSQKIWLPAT
# Serine/threonine-protein kinase Chk2, sequence (O96017 whole entry): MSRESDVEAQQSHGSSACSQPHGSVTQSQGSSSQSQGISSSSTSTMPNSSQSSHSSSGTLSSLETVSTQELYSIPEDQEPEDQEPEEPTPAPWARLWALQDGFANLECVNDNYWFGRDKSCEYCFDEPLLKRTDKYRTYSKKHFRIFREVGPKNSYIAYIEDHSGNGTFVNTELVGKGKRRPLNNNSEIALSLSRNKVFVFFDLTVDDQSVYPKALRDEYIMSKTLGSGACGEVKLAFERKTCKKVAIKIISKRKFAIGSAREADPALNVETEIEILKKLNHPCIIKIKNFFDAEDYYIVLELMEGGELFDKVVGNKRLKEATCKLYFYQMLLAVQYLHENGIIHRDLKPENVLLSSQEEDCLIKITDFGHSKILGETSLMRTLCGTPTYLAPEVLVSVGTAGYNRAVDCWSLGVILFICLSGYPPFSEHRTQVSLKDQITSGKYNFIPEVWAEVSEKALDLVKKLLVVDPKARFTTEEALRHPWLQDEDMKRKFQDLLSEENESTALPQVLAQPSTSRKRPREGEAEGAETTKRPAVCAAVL
# Mitogen-activated protein kinase 12, sequence (P53778 whole entry): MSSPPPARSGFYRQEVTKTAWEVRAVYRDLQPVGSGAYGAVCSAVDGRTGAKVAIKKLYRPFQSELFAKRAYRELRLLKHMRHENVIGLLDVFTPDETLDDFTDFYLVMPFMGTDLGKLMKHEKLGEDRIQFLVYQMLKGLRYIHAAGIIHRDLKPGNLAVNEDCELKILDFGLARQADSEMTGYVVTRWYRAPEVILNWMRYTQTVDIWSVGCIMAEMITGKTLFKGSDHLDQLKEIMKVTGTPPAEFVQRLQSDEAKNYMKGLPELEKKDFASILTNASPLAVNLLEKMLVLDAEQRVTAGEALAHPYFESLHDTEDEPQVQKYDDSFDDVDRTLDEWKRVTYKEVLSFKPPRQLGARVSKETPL
# Serine/threonine-protein kinase D2, sequence (Q9BZL6 whole entry): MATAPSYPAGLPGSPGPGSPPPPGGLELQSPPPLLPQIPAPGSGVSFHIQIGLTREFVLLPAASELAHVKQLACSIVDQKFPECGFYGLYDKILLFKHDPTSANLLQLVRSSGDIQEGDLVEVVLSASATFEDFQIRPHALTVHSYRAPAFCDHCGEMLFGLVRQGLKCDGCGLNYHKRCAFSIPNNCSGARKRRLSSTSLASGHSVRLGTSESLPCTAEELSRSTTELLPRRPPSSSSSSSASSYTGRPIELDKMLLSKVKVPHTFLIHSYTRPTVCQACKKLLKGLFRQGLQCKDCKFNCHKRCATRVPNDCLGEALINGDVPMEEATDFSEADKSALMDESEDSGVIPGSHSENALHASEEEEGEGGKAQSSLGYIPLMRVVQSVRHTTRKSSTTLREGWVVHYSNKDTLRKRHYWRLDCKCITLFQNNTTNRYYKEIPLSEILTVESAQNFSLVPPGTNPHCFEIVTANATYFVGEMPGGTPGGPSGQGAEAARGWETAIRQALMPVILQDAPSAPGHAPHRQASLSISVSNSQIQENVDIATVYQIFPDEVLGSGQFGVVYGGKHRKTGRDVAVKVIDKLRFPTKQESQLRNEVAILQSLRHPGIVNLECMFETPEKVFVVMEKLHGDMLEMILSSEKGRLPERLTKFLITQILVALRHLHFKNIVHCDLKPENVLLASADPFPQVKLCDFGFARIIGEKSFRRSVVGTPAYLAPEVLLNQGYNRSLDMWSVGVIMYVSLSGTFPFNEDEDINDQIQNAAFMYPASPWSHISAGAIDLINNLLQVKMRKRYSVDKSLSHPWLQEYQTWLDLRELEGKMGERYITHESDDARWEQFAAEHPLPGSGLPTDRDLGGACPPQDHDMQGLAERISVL
# Ephrin type-A receptor 2, sequence (P29317 whole entry): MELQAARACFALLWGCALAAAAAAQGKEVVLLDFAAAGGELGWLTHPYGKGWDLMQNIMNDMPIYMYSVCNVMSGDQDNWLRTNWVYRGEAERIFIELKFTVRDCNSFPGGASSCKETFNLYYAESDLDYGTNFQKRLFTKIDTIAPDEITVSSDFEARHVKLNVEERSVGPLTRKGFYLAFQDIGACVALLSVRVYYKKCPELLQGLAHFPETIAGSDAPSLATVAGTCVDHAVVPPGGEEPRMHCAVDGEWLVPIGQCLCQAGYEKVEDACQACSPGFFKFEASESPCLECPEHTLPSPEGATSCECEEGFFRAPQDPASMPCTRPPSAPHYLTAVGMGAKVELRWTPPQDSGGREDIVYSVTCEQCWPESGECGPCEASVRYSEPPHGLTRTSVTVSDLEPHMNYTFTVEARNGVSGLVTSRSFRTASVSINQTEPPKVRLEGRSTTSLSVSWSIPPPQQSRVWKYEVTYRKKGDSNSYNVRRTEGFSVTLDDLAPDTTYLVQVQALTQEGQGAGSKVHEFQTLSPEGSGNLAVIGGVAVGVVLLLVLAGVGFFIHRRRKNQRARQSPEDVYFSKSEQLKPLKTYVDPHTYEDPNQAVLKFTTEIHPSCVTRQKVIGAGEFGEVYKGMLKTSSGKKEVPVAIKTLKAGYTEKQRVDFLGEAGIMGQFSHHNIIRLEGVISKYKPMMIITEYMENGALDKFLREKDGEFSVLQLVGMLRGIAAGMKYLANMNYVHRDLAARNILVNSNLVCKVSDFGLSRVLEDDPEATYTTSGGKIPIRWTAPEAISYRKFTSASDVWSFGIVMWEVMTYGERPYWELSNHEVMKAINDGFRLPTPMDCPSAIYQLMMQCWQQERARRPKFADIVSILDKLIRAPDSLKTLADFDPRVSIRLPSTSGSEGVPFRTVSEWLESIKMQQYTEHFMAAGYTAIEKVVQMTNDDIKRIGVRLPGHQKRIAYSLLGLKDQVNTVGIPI
# Tyrosine-protein kinase Srms, sequence (Q9H3Y6 whole entry): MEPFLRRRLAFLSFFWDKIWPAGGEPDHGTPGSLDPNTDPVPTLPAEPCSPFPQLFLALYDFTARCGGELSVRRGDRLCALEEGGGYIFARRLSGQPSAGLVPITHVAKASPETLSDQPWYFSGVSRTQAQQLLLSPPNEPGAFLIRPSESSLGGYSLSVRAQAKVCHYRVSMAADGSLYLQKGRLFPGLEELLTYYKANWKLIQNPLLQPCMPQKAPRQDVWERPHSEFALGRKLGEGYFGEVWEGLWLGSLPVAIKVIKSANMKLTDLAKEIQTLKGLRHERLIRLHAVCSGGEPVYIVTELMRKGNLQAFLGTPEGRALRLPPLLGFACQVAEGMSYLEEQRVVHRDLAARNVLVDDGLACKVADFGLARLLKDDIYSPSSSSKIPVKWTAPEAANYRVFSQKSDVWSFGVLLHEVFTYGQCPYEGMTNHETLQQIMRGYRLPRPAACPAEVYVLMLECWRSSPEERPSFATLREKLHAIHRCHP
smiles,measurement,setting,value
O=C(COC(=O)c1ccc([N+](=O)[O-])s1)Nc1cccc(S(=O)(=O)/N=C2/CCCCCN2)c1,AC50,Caspase-6,4.57 µM (active)
same,IC50,Prothrombin,> 50 µM (not active)
same,AC50,Caspase-7,14.6 µM (active)
COc1ccc(C(C[N+](=O)[O-])c2c(C)[nH]n(-c3ccccc3)c2=O)cc1 (stereo not given),IC50,[1],9.41 µM (active)
Oc1c2ccccc2c2c3c(cccc13)N=N2 [SP-600125],Ki,[2],> 1.58 µM (inactive)
same,Ki,[3],0.158 µM (active)
same,Ki,[4],0.126 µM (active)
same,Ki,[5],1.26 µM (active)
same,Ki,[6],0.316 µM (active)
same,Ki,[7],> 6.31 µM (inactive)
same,Ki,[8],0.316 µM (active)
same,Ki,[9],2 µM (active)
same,Ki,[10],> 2 µM (inactive)
same,Ki,[11],0.501 µM (active)
same,Ki,[12],0.316 µM (active)
same,Ki,[13],> 7.94 µM (inactive)
same,Ki,[14],0.501 µM (active)
same,Ki,[15],0.0316 µM (active)
same,Ki,Ephrin type-A receptor 2,> 3.16 µM (inactive)
same,Ki,[16],0.631 µM (active)
same,Ki,[17],> 1.58 µM (inactive)
same,Ki,[18],> 7.94 µM (inactive)
same,Ki,[19],0.0794 µM (active)
same,Ki,[20],> 5.01 µM (inactive)
same,Ki,[21],> 7.94 µM (inactive)
